Laboratory results reported in patent US12514859B2, “Pyrazole pyrimidine derivative and uses thereof” (Yissum Research Development Company of the Hebrew …, priority 2015, dated 2026).

How the values were obtained:
[1] = tested on: p53, DNA damage response (γH2AX); assay: p53 and DNA damage response activation in RKO cells (Western blot, primary screen and dose response); type: cell-based; set-up: p53 stabilization: dose or concentration left out as unconfirmed; conditions: for DDR & p53 activity: 16 hours, Western blot, average value
Method: (§1) Primary Screen in RKO cells for compounds having typical CKIα inhibitory activity (β-catenin and p53 stabilization and histone H2AX phosphorylation; see Elyada et al, Nature 2011 Feb. 17; 470(7334):409-13; Pribluda et al, Cancer Cell 2013 Aug. 12; 24(2):242-56). RKO colorectal cells were incubated with 10 μM of each of the compounds for 16 hours at 37° C. Cells were washed with PBS and cell pellets were incubated with ice cold protein lysis buffer containing protease inhibitor cocktail (1/200; Calbiochem) and phosphatase inhibitors (20 mM p-nitrophenyl phosphate (PNPP), 20 mM β-glycerophosphate and 300 nM okadaic acid). Western blot analysis was performed by means of standard techniques. Blots were incubated with antibodies detecting β-catenin (1/2,500; BD Transduction), p53 (DO-1&1801 hybridoma mix; dilution of 1:20 of supernatants from each), CKIα (C-19; 1/1,000; Santa Cruz Biotechnology) and phospho-histoneH2AX (S139; 1/1,000; Millipore). Secondary antibodies were HRP-linked goat anti-mouse, goat anti-rabbit and rabbit anti-goat antibodies (all 1/10,000; Jackson). Blots were developed using ECL (GE Healthcare).
(§2) Active compounds were further analyzed in a dose-response experiment (FIGS. 1A and 1B). Similar to the primary screen, RKO cells were incubated with descending concentrations of each of the active compounds for 16 hours at 37° C. Cell extract isolation and Western Blot analysis were similar to the primary screen.
(§3) Table 1 provides quantified information for compounds of the invention in activation of p53 and DNA damage response (DDR) and β-catenin stabilization as an indicator of Wnt pathway activation. p53 activation was determined according to the degree of protein stabilization in several Western blot assays (Western blot examples are shown in FIGS. 1A and 1B). […] In contrast, A35 started stabilizing p53 at […], with maximal stabilization at […] (FIG. 1A, upper right panel) and thus received an average value of +++ for p53 activation.

Wnt/β-catenin = assay: β-catenin stabilization (Wnt pathway activation) in RKO cells (Western blot); type: cell-based; set-up: concentration at which β-catenin was stabilized: unit not given here; conditions: for β-Catenin activity: 16 hours, Western blot
Method: as §1, §2, §3

Structure (SMILES) | DDR & p53 activity [1] | β-Catenin activity (Wnt/β-catenin) | further results
Cn1ncc(-c2ccnc(NC3CCC(N)(CO)CC3)n2)c1CC1CC1 (stereo not drawn) [Compound A19, (1-amino-4-((4-(5-(cyclopropylmethyl)-1-methyl-1H-pyrazol-4-yl)pyrimidin-2-yl)amino)cyclohexyl)methanol] | + (+ indicates low, yet significant activation at a compound concentration of 6 μM) | + (+ indicates low, yet significant activation at a compound concentration of 6 μM) | 
Cn1ncc(-c2ccnc(NC3CCC4(CC3)NC(=O)NC4=O)n2)c1CC1CC1 (stereo not drawn) [Compound A19-4, 8-((4-(5-(cyclopropylmethyl)-1-methyl-1H-pyrazol-4-yl)pyrimidin-2-yl)amino)-1,3-diazaspiro[4.5]decane-2,4-dione] |  | +++ (+++ indicates maximal β-catenin or p53 stabilization at >2 μM) | p53 stabilization and γH2AX induction (in words) ([1]; FIG. 1A): neither stabilized p53, nor induced γH2AX; concentration at which β-catenin was stabilized (Wnt/β-catenin; FIG. 1A): 2
Cn1ncc(-c2ccnc(NC3CCC4(CC3)COC(=O)N4)n2)c1CC1CC1 (stereo not drawn) [Compound A26, 8-((4-(5-(cyclopropylmethyl)-1-methyl-1H-pyrazol-4-yl)pyrimidin-2-yl)amino)-3-oxa-1-azaspiro[4.5]decan-2-one] | + (+ indicates low, yet significant activation at a compound concentration of 6 μM) | + (+ indicates low, yet significant activation at a compound concentration of 6 μM) | 
Cn1ncc(-c2ccnc(N[C@H]3CC[C@H](N(C)C)CC3)n2)c1CC1CC1 [Compound A28, (1r, 4r)-N^1-(4-(5-(cyclopropylmethyl)-1-methyl-1H-pyrazol-4-yl)pyrimidin-2-yl)-N4,N4-dimethylcyclohexane-1,4-diamine] |  | +++ (+++ indicates maximal β-catenin or p53 stabilization at >2 μM) | 
Cn1ncc(-c2nc(NC3CCC(C)(N)CC3)ncc2Cl)c1CC1CC1 [Compound A30-1, (1R,4R)—N^1-(5-chloro-4-(5-(cyclopropylmethyl)-1-methyl-1H-pyrazol-4-yl)pyrimidin-2-yl)-4-methylcyclohexane-1,4-diamine] | ++++ (++++ indicates maximal activation of p53 and DDR at >0.5 μM) |  | 
CC(C)n1ncc(-c2ccnc(N[C@H]3CC[C@H](N)CC3)n2)c1CC1CC1 [Compound A35, (1r, 4r)-N^1-(4-(5-(cyclopropylmethyl)-1-isopropyl-1H-pyrazol-4-yl)pyrimidin-2-yl)cyclohexane-1,4-diamine] | +++ (+++ indicates maximal β-catenin or p53 stabilization at >2 μM) |  | concentration at which p53 stabilization starts / is significantly above non-treatment control ([1]; FIG. 1A): 0.2 µM; concentration of maximal p53 stabilization ([1]; FIG. 1A): 1 µM
N[C@H]1CC[C@H](Nc2nccc(-c3cnn(C4CCCOC4)c3CC3CC3)n2)CC1 (stereo partly drawn) [Compound A38, (1R, 4R)—N^1-(4-(5-(cyclopropylmethyl)-1-(tetrahydro-2H-pyran-3-yl)-1H-pyrazol-4-yl)pyrimidin-2-yl)cyclohexane-1,4-diamine] | + (+ indicates low, yet significant activation at a compound concentration of 6 μM) | + (+ indicates low, yet significant activation at a compound concentration of 6 μM) | 
N[C@H]1CC[C@H](Nc2nccc(-c3cnn(C4COC4)c3CC3CC3)n2)CC1 [Compound A43, (1R, 4R)—N^1-(4-(5-(cyclopropylmethyl)-1-(oxetan-3-yl)-1H-pyrazol-4-yl)pyrimidin-2-yl)cyclohexane-1,4-diamine] | + (+ indicates low, yet significant activation at a compound concentration of 6 μM) |  | concentration at which p53 stabilization starts / is significantly above non-treatment control ([1]; FIG. 1A): 6 µM; p53 stabilization ([1]; FIG. 1A): no activity
Cn1ncc(-c2ccnc(N[C@H]3CC[C@H](N)CC3)n2)c1CC1CCC1 [Compound A45, (1R, 4R)—N^1-(4-(5-(cyclobutylmethyl)-1-methyl-1H-pyrazol-4-yl)pyrimidin-2-yl)cyclohexane-1,4-diamine] |  | + (+ indicates low, yet significant activation at a compound concentration of 6 μM) | 
Cn1ncc(-c2ccnc(N[C@H]3CC[C@H](N4CCCCC4)CC3)n2)c1CC1CC1 [Compound A47, 4-(5-(cyclopropylmethyl)-1-methyl-1H-pyrazol-4-yl)-N-((1R,4R)-4-(piperidin-1-yl)cyclohexyl)pyrimidin-2-amine] |  | + (+ indicates low, yet significant activation at a compound concentration of 6 μM) | 
Cn1ncc(-c2ccnc(N[C@H]3CC[C@H](N4CCCC4)CC3)n2)c1CC1CC1 [Compound A49, 4-(5-(cyclopropylmethyl)-1-methyl-1H-pyrazol-4-yl)-N-((1R, 4R)-4-(pyrrolidin-1-yl)cyclohexyl)pyrimidin-2-amine] | + (+ indicates low, yet significant activation at a compound concentration of 6 μM) |  | 
Cn1ncc(-c2ccnc(N[C@H]3CC[C@H](N4CCC4)CC3)n2)c1CC1CC1 [Compound A50, N-((1R, 4R)-4-(azetidin-1-yl)cyclohexyl)-4-(5-(cyclopropylmethyl)-1-methyl-1H-pyrazol-4-yl)pyrimidin-2-amine] | +++ (+++ indicates maximal β-catenin or p53 stabilization at >2 μM) |  | 
Cn1ncc(-c2ccnc(N[C@H]3CC[C@H](N)CC3)n2)c1C(O)C1CC1 (stereo partly drawn) [Compound A58, (4-(2-(((1R,4R)-4-aminocyclohexyl)amino)pyrimidin-4-yl)-1-methyl-1H-pyrazol-5-yl)(cyclopropyl)methanol] | + (+ indicates low, yet significant activation at a compound concentration of 6 μM) |  | 
CC(C)n1ncc(-c2nc(N[C@H]3CC[C@H](N)CC3)ncc2Cl)c1CC1CC1 [Compound A59, (1R,4R)—N^1-(5-chloro-4-(5-(cyclopropylmethyl)-1-isopropyl-1H-pyrazol-4-yl)pyrimidin-2-yl)cyclohexane-1,4-diamine] | +++ (+++ indicates maximal β-catenin or p53 stabilization at >2 μM) |  | 
Cn1ncc(-c2nc(N[C@H]3CC[C@H](n4cccn4)CC3)ncc2Cl)c1CC1CC1 [Compound A64, N-((1R,4R)-4-(1H-pyrazol-1-yl)cyclohexyl)-5-chloro-4-(5-(cyclopropylmethyl)-1-methyl-1H-pyrazol-4-yl)pyrimidin-2-amine] | + (+ indicates low, yet significant activation at a compound concentration of 6 μM) |  | 
Cn1ncc(-c2nc(NC3CCC(NCc4ccccc4)CC3)ncc2Cl)c1CC1CC1 [Compound A74, (1R,4R)—N^1-benzyl-N^4-(5-chloro-4-(5-(cyclopropylmethyl)-1-methyl-1H-pyrazol-4-yl)pyrimidin-2-yl)cyclohexane-1,4-diamine] | +++ (+++ indicates maximal β-catenin or p53 stabilization at >2 μM) |  | 
Cn1ncc(-c2nc(NC3CCC(NCc4cccnc4)CC3)ncc2Cl)c1CC1CC1 [Compound A76, (1R,4R)—N^1-(5-chloro-4-(5-(cyclopropylmethyl)-1-methyl-1H-pyrazol-4-yl)pyrimidin-2-yl)-N^4-(pyridin-3-ylmethyl)cyclohexane-1,4-diamine] | +++ (+++ indicates maximal β-catenin or p53 stabilization at >2 μM) |  | 
Cn1ncc(-c2nc(NC3CCC(NCc4ccn[nH]4)CC3)ncc2Cl)c1CC1CC1 [Compound A82, (1R,4R)—N^1-((1H-pyrazol-3-yl)methyl)-N^4-(5-chloro-4-(5-(cyclopropylmethyl)-1-methyl-1H-pyrazol-4-yl)pyrimidin-2-yl)cyclohexane-1,4-diamine] | +++ (+++ indicates maximal β-catenin or p53 stabilization at >2 μM) |  | 
Cc1[nH]ncc1CN[C@H]1CC[C@H](Nc2ncc(Cl)c(-c3cnn(C)c3CC3CC3)n2)CC1 [Compound A91, (1R,4R)—N^1-(5-chloro-4-(5-(cyclopropylmethyl)-1-methyl-1H-pyrazol-4-yl)pyrimidin-2-yl)-N^4-((5-methyl-1H-pyrazol-4-yl)methyl)cyclohexane-1,4-diamine] | +++ (+++ indicates maximal β-catenin or p53 stabilization at >2 μM) |  | 
Cn1ncc(-c2nc(N[C@H]3CC[C@H](NCC(F)(F)F)CC3)ncc2Cl)c1CC1CC1 [Compound A94, (1R,4R)—N^1-(5-chloro-4-(5-(cyclopropylmethyl)-1-methyl-1H-pyrazol-4-yl)pyrimidin-2-yl)-N^4-(2,2,2-trifluoroethyl)cyclohexane-1,4-diamine] | + (+ indicates low, yet significant activation at a compound concentration of 6 μM) |  | 
Cn1ncc(-c2nc(N[C@H]3CC[C@H](N(Cc4cn[nH]c4)CC(F)(F)F)CC3)ncc2Cl)c1CC1CC1 [Compound A95, (1R,4R)—N1-((1H-pyrazol-4-yl)methyl)-N4-(5-chloro-4-(5-(cyclopropylmethyl)-1-methyl-1H-pyrazol-4-yl)pyrimidin-2-yl)-N1-(2,2,2-trifluoroethyl)cyclohexane-1,4-diamine] | +++ (+++ indicates maximal β-catenin or p53 stabilization at >2 μM) |  | 
